Laboratory results as given in patent publication US10744128B2, “6-(5-membered heteroaryl)isoquinolin-3-yl-(5-membered heteroaryl) carboxamides and preparation and use thereof” (Samumed, LLC, priority 2017, dated 2020).

Assays:
[1] = tested on: Wnt-responsive promoter (Sp5-Luc reporter) in SW480 colon carcinoma cells; assay: Sp5-Luc reporter gene screening assay for Wnt activity in SW480 cells; type: cell-based, human; conditions: Homo sapiens, 36 to 48 hours, luminescence
Excerpt: The screening assay for Wnt activity is described as follows. Reporter cell lines can be generated by stably transducing cancer cell lines (e.g., colon cancer) or primary cells (e.g., IEC-6 intestinal cells) with a lentiviral construct that includes a Wnt-responsive promoter driving expression of the firefly luciferase gene.
SW480 colon carcinoma cells were transduced with a lentiviral vector expressing luciferase with a human Sp5 promoter consisting of a sequence of eight TCF/LEF binding sites. SW480 cells stably expressing the Sp5-Luc reporter gene and a hygromycin resistance gene were selected by treatment with 150 μg/mL of hygromycin for 7 days. These stably transduced SW480 cells were expanded in cell culture and used for all further screening activities. […] For Sp5-Luc reporter gene assays, the cells were plated at 4,000 cells/well in 384-well plates with a DMEM medium containing 1% fetal bovine serum, and 1% Penicillin-Streptomycin and incubated for 36 to 48 hours at 37° C. and 5% CO2. Following incubation, 15 μl of BriteLite Plus luminescence reagent (Perkin Elmer) was added to each well of the 384-well assay plates. The plates were placed on an orbital shaker for 2 min and then luminescence was quantified using the Envision (Perkin Elmer) plate reader. Readings were normalized to DMSO only treated cells, and normalized activities were utilized for EC50 calculations using the dose-response log (inhibitor) vs. response −variable slope (four parameters) nonlinear regression feature available in GraphPad Prism 5.0 (or Dotmatics).

[2] = biological target: recombinant GSK3β kinase (Homo sapiens (Human), UniProt P49841); assay: GSK3β kinase assay (Ser/Thr 09 peptide Z-lyte, FRET); type: biochemical; conditions: GSK3β kinase, 46 μM ATP, one hour; method calls values IC50
Sequence of recombinant GSK3β kinase (P49841 whole entry): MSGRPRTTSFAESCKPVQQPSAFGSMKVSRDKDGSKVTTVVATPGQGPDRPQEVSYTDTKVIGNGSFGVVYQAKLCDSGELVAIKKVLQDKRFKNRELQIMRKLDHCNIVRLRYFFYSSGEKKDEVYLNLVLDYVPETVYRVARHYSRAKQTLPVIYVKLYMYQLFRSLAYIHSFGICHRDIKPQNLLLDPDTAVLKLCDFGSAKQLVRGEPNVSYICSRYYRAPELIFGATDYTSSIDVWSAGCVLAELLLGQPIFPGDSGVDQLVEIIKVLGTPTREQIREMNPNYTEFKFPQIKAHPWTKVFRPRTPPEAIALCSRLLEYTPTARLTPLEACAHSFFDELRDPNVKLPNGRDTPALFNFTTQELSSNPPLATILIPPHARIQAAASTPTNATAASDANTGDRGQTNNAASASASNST

[3] = tested on: SW480 colon carcinoma cells; assay: Cell viability assay (CellTiter-Glo) in SW480 cells; type: cell-based, human; conditions: Homo sapiens, 96 h, four days
Experimental: SW480 colon carcinoma cells were transduced with a lentiviral vector expressing luciferase with a human Sp5 promoter consisting of a sequence of eight TCF/LEF binding sites. SW480 cells stably expressing the Sp5-Luc reporter gene and a hygromycin resistance gene were selected by treatment with 150 µg/mL of hygromycin for 7 days. These stably transduced SW480 cells were expanded in cell culture and used for all further screening activities.
For the Cell Viability Assays, the cells were plated at 2,000 cells/well in 384-well plates with a DMEM medium containing 1% fetal bovine serum, and 1% Penicillin-Streptomycin and incubated for […] at 37° C. and 5% CO2. Eight replicates of DMSO-treated cells served as controls and cells treated with compound were performed in duplicate.
After incubation, 10 μL of CellTiter-Glo (Promega) was added to each well allowed to incubate for approximately 12 minutes. This reagent “results in cell lysis and generation of a luminescent signal proportional to the amount of ATP present. The amount of ATP is directly proportional to the number of cells present in culture, in agreement with previous reports. The CellTiter-Glo® Assay generates a “glow-type” luminescent signal, produced by the luciferase reaction (Promega.com)”.

[4] = tested on: primary human fibroblasts derived from IPF patients (LL29 cells), α-smooth muscle actin; assay: Inhibition of fibrotic process: αSMA in TGF-β1 treated LL29 fibroblasts; type: cell-based; conditions: Homo sapiens, Fibroblast, 96 h; LL29 cells, TGF-β1 20 ng/mL, 4 days, % cells positive for αSMA
Experimental: Representative compounds were screened using primary human fibroblasts (derived from IPF patients) treated with TGF-β1 to determine their ability to inhibit the fibrotic process.
LL29 cells were plated at 1,500 cells/well in 70 μL/well F12 medium supplemented with 1% Fetal Bovine Serum. […] Wells treated with TGF-β1 and containing DMSO were used as positive control, and cells with only DMSO were negative control. […] Following incubation for 4 days, SYTOX green nucleic acid stain (Life Technologies [Thermo Fisher Scientific]) was added to the wells at a final concentration of 1 μM and incubated at room temperature for 30 min.

[5] = tested on: IL-6; assay: IL-6 inhibition in LPS-stimulated human peripheral blood mononuclear cells (HTRF); type: cell-based; conditions: Homo sapiens, PBMC; for EC50: huPBMCs, LPS 50 ng/mL, 22 hours, IL-6 HTRF; for inhibition at 10 µM: read-out: percent inhibition at 10 μM
Experimental: Fresh Normal PB MNC (Catalog # PB001, AllCells, Alameda, Calif.) were shipped overnight at 4° C. and resuspended in Roswell Park Memorial Institute (RPMI) 1640 Medium, with GlutaMAX Supplement (Catalog #61870127, ThermoFisher Scientific, Waltham, Mass.) supplemented with 1% Penicillin-Streptomycin (Catalog #15140163, ThermoFisher Scientific, Waltham, Mass.) and 1% fetal bovine serum (FBS) (Catalog #16140089, ThermoFisher Scientific, Waltham, Mass.) assay media.
Fresh normal human peripheral blood mononuclear cells (huPBMCs) were resuspended in 1% FBS-RPMI assay media with 1% Penicillin-Streptomycin 1% to a cell concentration of 1×10e6 cells/mL. […] 50 ng/mL of Lipopolysaccharides from Escherichia coli 0111:B4 (Catalog #L5293-2ML, Sigma-Aldrich, St. Louis, Mo.) was added after 2 hours and cells were incubated for another 22 hours at 37° C.-5% CO2. After 22 hour incubation, a mixture of anti-IL6 XL665 and anti-IL-6 Cryptate diluted in reconstitution buffer (Catalog #62IL6PEC, Cisbio Inc., Bedford, Mass.) was added to each well. Following incubation for 3 hours at room temperature, Homogeneous Time-Resolved Fluorescence (HTRF) was measured using the Envision (Perkin Elmer, Shelton, Conn.) at 665 nm and […]. The ratio of fluorescence at 665 nm to 620 nm was used as a readout for IL-6 quantification. All samples were processed in duplicate. Readings were normalized to DMSO treated cells and normalized activities were utilized for EC50 calculations. EC50 was determined using software generated by Dotmatics Limited (Windhill Bishops Stortford Herts, UK) using the Levenberg-Marquardt 4 parameter fitting procedure with finite different gradients.

[6] = biological target: recombinant DYRK1A kinase (Homo sapiens (Human), UniProt Q13627); assay: DYRK1A kinase assay (Ser/Thr 18 peptide Z-lyte, FRET); conditions: DYRK1A kinase, 30 μM ATP, one hour; method calls values IC50
Experimental: Each compound was dissolved in DMSO as a 10 mM stock and used to prepare compound source plates.
This is a non-radioactive assay using fluorescence resonance energy transfer (FRET) between coumarin and fluorescein to detect kinase activity which is represented as a ratio of coumarin emission/fluorescein emission.
The mixture was allowed to incubate with the representative compounds for one hour at room temperature. All reactions were performed in duplicate. Unphosphorylated (“0% Control”) and phosphorylated (“100% control”) forms of Ser/Thr 18 served as control reactions. Additionally, an 11-point dose-response curve of Staurosporine (1 uM top) was run to serve as a positive compound control.
After incubation, Development Reagent A was diluted in Development Buffer then added to the reaction and allowed to further incubate for one hour at room temperature.
Dose-response curves were generated and inhibitory concentration (IC50) values were calculated using non-linear regression curve fit in the Dotmatics' Studies Software (Bishops Stortford, UK).

Row | EC50 [1] | EC50 [2] | EC50 [3] | EC50 [5] | EC50 [6] | SMILES | EC50 [4] | inhibition at 10 µM [5]
1 | 1040 nM | 1260 nM | 3910 nM | > 10000 nM | 15 nM | CN(C)C1CN(c2nc(C(=O)Nc3cc4cc(-c5cnn(C)c5)ccc4cn3)co2)C1 [Compound 18, 2-(3-(Dimethylamino)azetidin-1-yl)-N-(6-(1-methyl-1H-pyrazol-4-yl)isoquinolin-3-yl)oxazole-4-carboxamide] | 481 nM | 9%
2 | 106 nM | 979 nM | 300 nM | 695 nM | 12 nM | Cn1cc(-c2ccc3cnc(NC(=O)c4coc(C5CCNCC5)n4)cc3c2)cn1 [Compound 19, N-(6-(1-Methyl-1H-pyrazol-4-yl)isoquinolin-3-yl)-2-(piperidin-4-yl)oxazole-4-carboxamide] | 170 nM | 
3 | 107 nM | 3240 nM | 427 nM | 3690 nM | 15 nM | CN1CCC(c2nc(C(=O)Nc3cc4cc(-c5cnn(C)c5)ccc4cn3)co2)CC1 [Compound 20, N-(6-(1-Methyl-1H-pyrazol-4-yl)isoquinolin-3-yl)-2-(1-methylpiperidin-4-yl)oxazole-4-carboxamide] | 2000 nM | 
4 | 180 nM | 2590 nM | 782 nM | > 10000 nM | 16 nM | CC(C)N1CCC(c2nc(C(=O)Nc3cc4cc(-c5cnn(C)c5)ccc4cn3)co2)CC1 [Compound 22, 2-(1-Isopropylpiperidin-4-yl)-N-(6-(1-methyl-1H-pyrazol-4-yl)isoquinolin-3-yl)oxazole-4-carboxamide] | 2910 nM | 27.8%
5 | 1020 nM | 2180 nM | 3730 nM | > 10000 nM | 18 nM | CN1CCN(c2nc(C(=O)Nc3cc4cc(-c5cnn(C)c5)ccc4cn3)co2)CC1 [Compound 23, N-(6-(1-Methyl-1H-pyrazol-4-yl)isoquinolin-3-yl)-2-(4-methylpiperazin-1-yl)oxazole-4-carboxamide] | 325 nM | 5.5%
6 | 1320 nM | 1760 nM | 1640 nM | 3020 nM | 2 nM | CN(C)C1CN(c2ncc(C(=O)Nc3cc4cc(-c5cnn(C)c5)ccc4cn3)s2)C1 [Compound 24, 2-(3-(Dimethylamino)azetidin-1-yl)-N-(6-(1-methyl-1H-pyrazol-4-yl)isoquinolin-3-yl)thiazole-5-carboxamide] | 2750 nM | 
7 | 546 nM | 3060 nM | 876 nM | 2580 nM | 39 nM | Cn1cc(-c2ccc3cnc(NC(=O)c4csc(C5CCNCC5)n4)cc3c2)cn1 [Compound 25, N-(6-(1-Methyl-1H-pyrazol-4-yl)isoquinolin-3-yl)-2-(piperidin-4-yl) thiazole-4-carboxamide] | 1190 nM | 
8 | 1750 nM | 2190 nM | 3410 nM | > 10000 nM | 3 nM | CN1CCN(c2nc(C(=O)Nc3cc4cc(-c5cnn(C)c5)ccc4cn3)cs2)CC1 [Compound 26, N-(6-(1-Methyl-1H-pyrazol-4-yl)isoquinolin-3-yl)-2-(4-methylpiperazin-1-yl)thiazole-4-carboxamide] | 4700 nM | 40.3%
9 | 30 nM | 230 nM | 60 nM | 366 nM | 3 nM | Cn1cc(-c2ccc3cnc(NC(=O)c4cnn(C5CCNCC5)c4)cc3c2)nn1 [Compound 29, N-(6-(1-Methyl-1H-1,2,3-triazol-4-yl)isoquinolin-3-yl)-1-(piperidin-4-yl)-1H-pyrazole-4-carboxamide] | 135 nM | 
10 | 14 nM | 322 nM | 32 nM | 261 nM | 3 nM | CN1CCC(n2cc(C(=O)Nc3cc4cc(-c5cn(C)nn5)ccc4cn3)cn2)CC1 [Compound 30, N-(6-(1-Methyl-1H-1,2,3-triazol-4-yl)isoquinolin-3-yl)-1-(1-methylpiperidin-4-yl)-1H-pyrazole-4-carboxamide] | 83 nM | 
11 | 21 nM | 286 nM | 39 nM | 688 nM | 3 nM | CCN1CCC(n2cc(C(=O)Nc3cc4cc(-c5cn(C)nn5)ccc4cn3)cn2)CC1 [Compound 31, 1-(1-Ethylpiperidin-4-yl)-N-(6-(1-methyl-1H-1,2,3-triazol-4-yl)isoquinolin-3-yl)-1H-pyrazole-4-carboxamide] | 298 nM | 
12 | 33 nM | 349 nM | 44 nM | 437 nM | 3 nM | CC(C)N1CCC(n2cc(C(=O)Nc3cc4cc(-c5cn(C)nn5)ccc4cn3)cn2)CC1 [Compound 32, 1-(1-Isopropylpiperidin-4-yl)-N-(6-(1-methyl-1H-1,2,3-triazol-4-yl)isoquinolin-3-yl)-1H-pyrazole-4-carboxamide] | 203 nM | 
13 | 71 nM | 316 nM | 257 nM | 852 nM | 7 nM | Cn1cc(-c2ccc3cnc(NC(=O)c4cn(C5CCNCC5)nn4)cc3c2)nn1 [Compound 33, N-(6-(1-Methyl-1H-1,2,3-triazol-4-yl)isoquinolin-3-yl)-1-(piperidin-4-yl)-1H-1,2,3-triazole-4-carboxamide] | 562 nM | 
14 | 230 nM | 395 nM | 664 nM | 1100 nM | 6 nM | Cn1cc(-c2ccc3cnc(NC(=O)c4cn(C5CCN(CCF)CC5)nn4)cc3c2)nn1 [Compound 34, 1-(1-(2-Fluoroethyl)piperidin-4-yl)-N-(6-(1-methyl-1H-1,2,3-triazol-4-yl)isoquinolin-3-yl)-1H-1,2,3-triazole-4-carboxamide] | 642 nM | 
